Data on four compounds can be found in patent US20140200241A1, “PRODRUGS FOR TREATING MICROBIAL INFECTIONS” (Northeastern University, priority 2011, published 2014).

The subject of series [1] is Pseudomonas aeruginosa. Briefly: microbe, parasite or virus in culture.
The test system of series [2] is Fadu. Briefly: cells. The conditions noted are these: Homo sapiens.
The subject of series [3] is HepG2. Briefly: cells. The conditions noted are these: Homo sapiens.
For series [4], the system named is Escherichia coli. Nature of the series: microbe, parasite or virus in culture.
In series [5] the test system is Francisella tularensis. The conditions noted are these: human fibroblast IC50 vs MIC, F. tularensis.
Series [6] deals with Staphylococcus aureus. Briefly: microbe, parasite or virus in culture. As to conditions: for MIC: S. aureus.
The subject of series [7] is Acinetobacter baumannii. Briefly: microbe, parasite or virus in culture.
Series [8] has as its system Yersinia pestis. Nature of the series: microbe, parasite or virus in culture. The conditions noted are these: for MIC: Y. pestis (FL2, PD30: KIM).
The test system of series [9] is Enterococcus faecalis. Briefly: microbe, parasite or virus in culture.
Series [10] relates to Yersinia pestis. As to conditions: human fibroblast IC50 vs MIC, Y. pestis.
The subject of series [11] is Bacillus anthracis. The conditions noted are these: human fibroblast IC50 vs MIC, B. anthracis.
Series [12] concerns Acinetobacter baumannii. As to conditions: human.
Series [13] concerns Pseudomonas aeruginosa. As to conditions: human.
For series [14], the system named is HepG2. As to conditions: human.
A short description of another series: in vitro. As to conditions: human.
Series [15] relates to IMR90. The conditions noted are these: human.
Series [16] has as its system E. coli long-chromosomal-deletion mutants. As to conditions: 50 μg/ml of prodrug.
In series [17] the test system is Fadu. As to conditions: human.
Series [18] deals with IMR90. Nature of the series: cells. As to conditions: Homo sapiens, IMR-90.
For series [19], the system named is Francisella tularensis. Briefly: microbe, parasite or virus in culture. As to conditions: for MIC: F. tularensis SchuS4.
Series [20] relates to Bacillus anthracis. Briefly: microbe, parasite or virus in culture.
The subject of series [21] is Escherichia coli. The conditions noted are these: human.
A further series concerns S. aureus. The conditions noted are these: S. aureus mouse infection model; cited from earlier work.
For the next series, the system named is E. coli ΔybgJ. Briefly: microbe, parasite or virus in culture. As to conditions: Escherichia coli.
Series [22] relates to Caco-2. The conditions noted are these: human.
The subject of series [23] is Caco-2. Nature of the series: cells. As to conditions: Homo sapiens.
Another series concerns E. coli ΔargC. Nature of the series: microbe, parasite or virus in culture. The conditions noted are these: Escherichia coli.
Series [24] deals with Staphylococcus aureus. As to conditions: for TI: human.
For series [25], the system named is Enterococcus faecalis. The conditions noted are these: human.
The test system of series [26] is E. coli ΔnfsA/ΔnfnB. Nature of the series: microbe, parasite or virus in culture. The conditions noted are these: Escherichia coli.
For series [27], the system named is E. coli ΔnfsA/ΔnfnB. As to conditions: double mutant lacking both major nitroreductases vs wild type.
The next series concerns Salmonella typhimurium. Nature of the series: MIC against Salmonella typhimurium. As to conditions: Salmonella enterica. The format is cell-based.
For the next series, the system named is MRSA. Nature of the series: MRSA infection in C. elegans. It counts as in vivo.
In a further series the test system is E. coli ΔnfnB. Nature of the series: microbe, parasite or virus in culture. As to conditions: Escherichia coli.
Another series concerns E. coli ΔnfsA. Briefly: microbe, parasite or virus in culture. As to conditions: Escherichia coli.

Converted amounts (≈) assume the structure as drawn. Read-outs that look alike come from different tables or passages of the source.

Consider `Oc1c(Br)cc(Br)c2cccnc12` [FL2], for which the MIC was over 50 µg/mL against Pseudomonas aeruginosa [1]; 1.5 µg/mL (≈ 4.95 µM) with Escherichia coli [4] (read-out: MIC Against E. coli); at most 1.5 µg/mL against Staphylococcus aureus [6]; 6.25 µg/mL (≈ 20.6 µM) with Acinetobacter baumannii [7]; 1.5 µg/mL (≈ 4.95 µM) in the series with Yersinia pestis [8]; 3.25 µg/mL (≈ 10.7 µM) with Enterococcus faecalis [9]. The MIC against Francisella tularensis [19] was found to be 0.097 µg/mL (≈ 0.32 µM); in the series with Bacillus anthracis [20] it was 1.5 µg/mL (≈ 4.95 µM). The IC50 in the series with Fadu [2] was 31.2 µg/mL (≈ 103 µM); in the series with HepG2 [3] it was 62.5 µg/mL (≈ 206 µM); in “in vitro”, 100 µg/mL (≈ 330 µM); in the series with IMR90 [18] it was 100 µg/mL (≈ 330 µM). The MBC is 3 µg/mL (≈ 9.9 µM) with Escherichia coli [4], 12.5 to 25 µg/mL (≈ 41.3 to 82.5 µM) in the series with Yersinia pestis [8], 1.5 to 3.12 µg/mL (≈ 4.95 to 10.3 µM) in the series on Francisella tularensis [19] and over 50 µg/mL against Bacillus anthracis [20]. In addition, the TI is listed as 1,031 in the series on Francisella tularensis [5]; 67 in the series with Yersinia pestis [10]; 67 in the series with Bacillus anthracis [11]; 16 in the series with Acinetobacter baumannii [12]; over 2 in the series with Pseudomonas aeruginosa [13]; 42 in the series with HepG2 [14]. Besides, the TI with IMR90 [15] amounted to 67; in the series on Fadu [17] it was 21; in the series on Escherichia coli [21], 67. The “Resistance (growth in presence of prodrug)” value in series [16] is recorded as “observed in a large number of deletions”.
On to `COc1ccccc1NC(=O)Nc1ccc2ccccc2c1` [INF271], for which the efficacy result in the series on S. aureus is recorded as “shows efficacy in a S. aureus mouse infection model”.
Take `O=C(/C=C(\O)C(F)(F)F)c1ccc(Cl)cc1` [PD30]: the MIC in the series on Pseudomonas aeruginosa [1] is over 50 µg/mL; in the series with Escherichia coli [4] (read-out: MIC Against E. coli), 6.25 µg/mL (≈ 24.9 µM); against Staphylococcus aureus [6], 3.12 µg/mL (≈ 12.5 µM); in the series with Acinetobacter baumannii [7] it was 12.5 µg/mL (≈ 49.9 µM); in the series with Yersinia pestis [8], 0.78 µg/mL (≈ 3.11 µM); in the series on E. coli ΔybgJ, 100 µg/mL (≈ 399 µM). Further, the MIC is 6.25 µg/mL (≈ 24.9 µM) in the series with Enterococcus faecalis [9]; 50 µg/mL (≈ 200 µM) against E. coli ΔargC; 0.195 µg/mL (≈ 0.778 µM) against Francisella tularensis [19]; 3.12 µg/mL (≈ 12.4 µM) against Staphylococcus aureus [24] (S. aureus); 0.78 µg/mL (≈ 3.11 µM) in the series with Bacillus anthracis [20]. The IC50 stood at 62.5 µg/mL (≈ 249 µM) in the series with Fadu [2]; 62.5 µg/mL (≈ 249 µM) with HepG2 [3]; 200 µg/mL (≈ 798 µM) with Caco-2 [23]; 250 µg/mL (≈ 998 µM) in “in vitro”; 250 µg/mL (≈ 998 µM) in the series on IMR90 [18]. Moreover, the TI in the series with Francisella tularensis [5] was 1,282; in the series on Caco-2 [22], 32; with Yersinia pestis [10] it was 320; with Bacillus anthracis [11] it was 320; with Acinetobacter baumannii [12] it was 20; with Pseudomonas aeruginosa [13], over 2. The TI is 10 in the series on HepG2 [14]; 40 in the series with IMR90 [15]; 10 with Fadu [17]; 80 in the series with Staphylococcus aureus [24]; 40 in the series with Escherichia coli [21]; 40 in the series on Enterococcus faecalis [25]. In addition, the MBC in the series with Yersinia pestis [8] is 3.12 to 6.25 µg/mL (≈ 12.4 to 24.9 µM); in the series on Francisella tularensis [19] it was 0.78 to 1.5 µg/mL (≈ 3.11 to 5.99 µM); with Bacillus anthracis [20] it was over 50 µg/mL. Moreover, the Hemolytic activity result with Sheep's red blood cells was “no hemolytic activity”.
Take `O=[N+]([O-])c1ccc(/C=[N+](\[O-])CCO)o1` [FL1]: the MIC in the series on Pseudomonas aeruginosa [1] is 25 µg/mL (≈ 125 µM); in the series with E. coli ΔnfsA/ΔnfnB [26], 12.5 µg/mL (≈ 62.5 µM); against Escherichia coli [4], 0.78 µg/mL (≈ 3.9 µM); in the series with Escherichia coli [4] (read-out: MIC Against E. coli), 0.78 µg/mL (≈ 3.9 µM); against Salmonella typhimurium, 5 µg/mL (≈ 25 µM); in the series with Staphylococcus aureus [6], 1.56 µg/mL (≈ 7.79 µM). In addition, the MIC was 12.5 µg/mL (≈ 62.5 µM) with Acinetobacter baumannii [7]; at most 0.78 µg/mL against Yersinia pestis [8]; 3.12 µg/mL (≈ 15.6 µM) in the series with Enterococcus faecalis [9]; 0.16 µg/mL (≈ 0.799 µM) in the series with E. coli ΔnfnB; 0.35 µg/mL (≈ 1.75 µM) with Bacillus anthracis [20]; 2.5 µg/mL (≈ 12.5 µM) in the series on E. coli ΔnfsA. Besides, the IC50 in the series with Fadu [2] was 62.5 µg/mL (≈ 312 µM); with HepG2 [3], 31.2 µg/mL (≈ 156 µM); in the series on Caco-2 [23], 200 µg/mL (≈ 999 µM); in the series “in vitro” it was 250 µg/mL (≈ 1250 µM); with IMR90 [18], 250 µg/mL (≈ 1250 µM). Besides, the MBC worked out at 0.78 µg/mL (≈ 3.9 µM) in the series on Escherichia coli [4], 3.25 µg/mL (≈ 16.2 µM) in the series on Staphylococcus aureus [6] and 0.78 µg/mL (≈ 3.9 µM) in the series with Bacillus anthracis [20]. In the series with E. coli ΔnfsA/ΔnfnB [27], this compound returned a decrease of activity of 16 fold. Further, the TI was 256 in the series on Caco-2 [22]; “≧320” in the series on Yersinia pestis [10]; 20 with Acinetobacter baumannii [12]; 10 in the series with Pseudomonas aeruginosa [13]; 40 with HepG2 [14]; 320 in the series with IMR90 [15]. In addition, the TI in the series with Fadu [17] was 80; in the series on Staphylococcus aureus [24], 160; in the series on Escherichia coli [21] it was 320; with Enterococcus faecalis [25], 80. Moreover, the in vivo efficacy entry with MRSA is “in vivo efficacy against a MRSA infection in C. elegans”. Besides, in the series on Sheep's red blood cells, the Hemolytic activity entry is reported as “no hemolytic activity”.
